Our source for the IC50 values is patent US20120157439A1, “RAF INHIBITOR COMPOUNDS AND METHODS OF USE THEREOF” (GENENTECH, INC., priority 2009, published 2012).

In this assay the target is T1, V600E full-length B-Raf (Homo sapiens, UniProt P15056, V600E).
T1 construct: 1 μM FSBA-MEK and 20 nM V600E full-length B-Raf; made in house; host or cells: sf9 insect cells (baculovirus)
In words: B-Raf IC50 Assay (B-RAF V600E inhibition assay, Example A). It is filed as biochemical. From the text:
Determining the activity of Raf in the sample is possible by a number of direct and indirect detection methods (US 2004/0082014). Activity of human recombinant B-Raf protein may be assessed in vitro by assay of the incorporation of radio labeled phosphate to recombinant MAP kinase (MEK), a known physiologic substrate of B-Raf, according to US 2004/0127496 and WO 03/022840. The activity/inhibition of V600E full-length B-Raf was estimated by measuring the incorporation of radio labeled phosphate from [γ-33P]ATP into FSBA-modified wild-type MEK (see Example A).
Activity of human recombinant B-Raf protein may be assessed in vitro by assay of the incorporation of radio labeled phosphate to recombinant MAP kinase (MEK), a known physiologic substrate of B-Raf, according to U.S. Patent Appl. Publication No. 2004/0127496 and WO 03/022840. Catalytically active human recombinant B-Raf protein is obtained by purification from sf9 insect cells infected with a human B-Raf recombinant baculovirus expression vector.
The activity/inhibition of V600E full-length B-Raf was estimated by measuring the incorporation of radio labeled phosphate from [γ-33P]ATP into FSBA-modified wild-type MEK. The […] assay mixtures contained 25 mM Na Pipes, pH 7.2, 100 mM KCl, 10 mM MgCl2, 5 mM β-glycerophosphate, 100 μM Na Vanadate, 4 μM ATP, 500 nCi [γ-33P]ATP, 1 μM FSBA-MEK and 20 nM V600E full-length B-Raf. Incubations were carried out at 22° C. in a Costar 3365 plate (Corning). Prior to the assay, the B-Raf and FSBA-MEK were preincubated together in assay buffer at 1.5× (20 μL of 30 nM and 1.5 μM, respectively) for 15 minutes, and the assay was initiated by the addition of 10 μL of […]. Following the 60-minute incubation, the assay mixtures were quenched by the addition of 100 μL of 25% TCA, the plate was mixed on a rotary shaker for 1 minute, and the product was captured on a Perkin-Elmer GF/B filter plate using a Tomtec Mach III Harvester. After sealing the bottom of the plate, 35 μL of Bio-Safe II (Research Products International) scintillation cocktail were added to each well and the plate was top-sealed and counted in a Topcount NXT (Packard).

Where [1] appears, read: B-Raf V600E assay of Example A: less than 100 nM, read-out: IC50.
Setting [2] is: B-Raf V600E assay of Example A: less than about 1 μM, read-out: IC50.
Where [3] appears, read: incorporation of radio labeled phosphate from [γ-33P]ATP into FSBA-modified wild-type MEK, 4 μM ATP, 20 nM V600E full-length B-Raf, 60-minute incubation, 22° C., read-out: BRAF V600E IC50.

Each structure is given as a SMILES string. Like-named read-outs stand apart in the source and are kept apart here.

T1 sequence (P15056 whole entry V600E): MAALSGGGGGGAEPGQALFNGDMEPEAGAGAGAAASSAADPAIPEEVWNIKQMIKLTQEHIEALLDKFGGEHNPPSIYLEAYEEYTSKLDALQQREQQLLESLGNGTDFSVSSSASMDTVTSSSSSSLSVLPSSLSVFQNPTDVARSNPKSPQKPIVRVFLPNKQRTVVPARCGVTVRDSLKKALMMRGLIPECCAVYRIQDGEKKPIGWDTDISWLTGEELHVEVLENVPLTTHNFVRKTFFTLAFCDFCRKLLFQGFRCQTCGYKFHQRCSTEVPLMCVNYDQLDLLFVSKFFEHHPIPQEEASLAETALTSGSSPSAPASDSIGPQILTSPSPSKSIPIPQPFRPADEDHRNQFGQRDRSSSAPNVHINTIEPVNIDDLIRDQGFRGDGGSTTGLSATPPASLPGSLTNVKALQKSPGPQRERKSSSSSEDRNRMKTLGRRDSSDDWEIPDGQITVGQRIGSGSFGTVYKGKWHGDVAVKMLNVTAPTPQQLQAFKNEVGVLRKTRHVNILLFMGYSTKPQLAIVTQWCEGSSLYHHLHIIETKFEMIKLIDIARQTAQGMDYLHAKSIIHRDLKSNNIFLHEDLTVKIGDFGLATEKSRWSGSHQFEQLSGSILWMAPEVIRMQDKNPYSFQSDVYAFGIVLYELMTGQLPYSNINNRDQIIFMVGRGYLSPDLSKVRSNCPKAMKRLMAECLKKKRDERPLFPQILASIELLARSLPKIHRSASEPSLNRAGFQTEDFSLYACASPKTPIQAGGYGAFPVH

Turning to `CCCS(=O)(=O)Nc1ccc(F)c(NC(=O)c2csc3c(NC(C)C)ncnc23)c1F` [Example 50, 4-Isopropyl-amino-thieno [3,2-d] pyrimidine-7-carboxylic acid [2,6-difluoro-3-(propane-1-sulfonylamino)-phenyl]-amide], the IC50 runs as follows: under setting [1], < 100 nM; under setting [2], < 1000 nM; under setting [3], 36.5 nM.

As to `CN(C)S(=O)(=O)Nc1ccc(F)c(NC(=O)c2csc3c(N)ncnc23)c1F` [Example 29, 4-Amino-N-(3-(N,N-dimethylsulfamoylamino)-2,6-difluorophenyl)thieno[3,2-d]pyrimidine-7-carboxamide], the IC50 runs as follows: under setting [1], < 100 nM; under setting [2], < 1000 nM; under setting [3], 88 nM.

For `CCCS(=O)(=O)Nc1ccc(Cl)c(NC(=O)c2csc3c(NCC(F)(F)F)ncnc23)c1Cl` [Example 78, 4-(2,2,2-Trifluoro-ethylamino)-thieno[3,2-d] pyrimidine-7-carboxylic acid [2,6-dichloro-3-(propane-1-sulfonyl-amino)-phenyl]-amide], the IC50 was < 100 nM under setting [1], < 1000 nM under setting [2] and 11.7 nM under setting [3].

Regarding `CCCS(=O)(=O)Nc1cc(F)cc(NC(=O)c2csc3c(N)ncnc23)c1F` [Example 20, 4-Amino-thieno[3,2-d] pyrimidine-7-carboxylic acid [2,5-difluoro-3-(propane-1-sulfonyl-amino)-phenyl]-amide], the IC50 under setting [1] is < 100 nM, the IC50 under setting [2] was < 1000 nM and the IC50 under setting [3] was 5.7 nM.

In the case of `CCCS(=O)(=O)Nc1ccc(Cl)c(NC(=O)c2csc3c(NN4CCOCC4)ncnc23)c1Cl` [Example 67, 4-(Morpholin-4-ylamino)-thieno[3,2-d] pyrimidine-7-carboxylic acid [2,6-dichloro-3-(propane-1-sulfonyl-amino)-phenyl]-amide], the IC50 is, setting by setting: under setting [1], < 100 nM; under setting [2], < 1000 nM; under setting [3], 0.2 nM.

For the compound `CCCS(=O)(=O)Nc1ccc(F)c(NC(=O)c2csc3c(N)ncnc23)c1Cl` [Example 5, 4-Amino-thieno[3,2-d] pyrimidine-7-carboxylic acid [2-chloro-6-fluoro-3-(propane-1-sulfonyl-amino)-phenyl]-amide], the IC50 is, setting by setting: under setting [1], < 100 nM; under setting [2], < 1000 nM; under setting [3], 0.86 nM.

As for `CCCS(=O)(=O)Nc1cc(Cl)cc(NC(=O)c2csc3c(N)ncnc23)c1F` [Example 21, 4-Amino-thieno[3,2-d] pyrimidine-7-carboxylic acid [5-chloro-2-fluoro-3-(propane-1-sulfonyl-amino)-phenyl]-amide], the half-inhibitory concentration (IC50) by setting is: under setting [1], < 100 nM; under setting [2], < 1000 nM; under setting [3], 47.1 nM.

`CCCS(=O)(=O)Nc1ccc(F)c(NC(=O)c2csc3c(NCC(C)C)ncnc23)c1F` [Example 57, 4-Isobutylamino-thieno[3,2-d] pyrimidine-7-carboxylic acid [2,6-difluoro-3-(propane-1-sulfonylamino)-phenyl]-amide]: the IC50 under setting [1] is < 100 nM, the IC50 under setting [2] is < 1000 nM and the IC50 under setting [3] worked out at 12.8 nM.

On to `Nc1ncnc2c(C(=O)Nc3c(Cl)ccc(NS(=O)(=O)CCCF)c3F)nsc12` [Example 32, 7-Amino-isothiazolo[4,5-d]pyrimidine-3-carboxylic acid [6-chloro-2-fluoro-3-(3-fluoro-propane-1-sulfonylamino)-phenyl]-amide], for which the IC50 is, setting by setting: under setting [1], < 100 nM; under setting [2], < 1000 nM; under setting [3], 0.18 nM.

As to `CCCS(=O)(=O)Nc1ccc(F)c(NC(=O)c2c[nH]c3c(NC)ncnc23)c1F` [Example 103, 4-Methylamino-5H-pyrrolo[3,2-d]pyrimidine-7-carboxylic acid [2,6-difluoro-3-(propane-1-sulfonylamino)-phenyl]-amide], the IC50 reads like this: under setting [2], < 1000 nM; under setting [3], 115 nM.

For the compound `CCCS(=O)(=O)Nc1ccc(F)c(NC(=O)c2c[nH]c3c(N)ncnc23)c1F` [Example 102, 4-Amino-5H-pyrrolo[3,2-d]pyrimidine-7-carboxylic acid [2,6-difluoro-3-(propane-1-sulfonylamino)-phenyl]-amide], the IC50 runs as follows: under setting [1], < 100 nM; under setting [2], < 1000 nM; under setting [3], 20.6 nM.

With `CCNc1ncnc2c(C(=O)Nc3c(F)c(F)cc(NS(=O)(=O)CCCF)c3F)csc12` [Example 98, 4-Ethylamino-thieno[3,2-d] pyrimidine-7-carboxylic acid [2,3,6-trifluoro-5-(3-fluoro-propane-1-sulfonyl-amino)-phenyl]-amide], the IC50 runs as follows: under setting [1], < 100 nM; under setting [2], < 1000 nM; under setting [3], 2.16 nM.

For the compound `CCCS(=O)(=O)Nc1ccc(Cl)c(NC(=O)c2csc3c(N)ncnc23)c1Cl` [Example 9, 4-Amino-thieno[3,2-d]pyrimidine-7-carboxylic acid[2,6-dichloro-3-(propane-1-sulfonylamino)-phenyl]-amide], the half-maximal inhibitory concentration (IC50) under setting [1] was < 100 nM, the 50% inhibitory concentration (IC50) under setting [2] was < 1000 nM and the IC50 under setting [3] came out at 0.1 nM.

Take `CCCS(=O)(=O)Nc1ccc(F)c(NC(=O)c2csc3c(NC4CC4)ncnc23)c1F` [Example 47]: the IC50 was < 100 nM under setting [1], < 1000 nM under setting [2] and 4.7 nM under setting [3].

With `Nc1ncnc2c(C(=O)Nc3c(F)ccc(NS(=O)(=O)CCCF)c3Cl)csc12` [Example 15, 4-Amino-thieno[3,2-d] pyrimidine-7-carboxylic acid [2-chloro-6-fluoro-3-(3-fluoro-propane-1-sulfonylamino)-phenyl]-amide], the IC50 under setting [1] is < 100 nM, the IC50 under setting [2] is < 1000 nM and the IC50 under setting [3] stood at 0.2 nM.

As to `CCCS(=O)(=O)Nc1ccc(Cl)c(NC(=O)c2csc3c(NC4CC4)ncnc23)c1Cl` [Example 66, 4-Cyclopropylamino-thieno[3,2-d]pyrimidine-7-carboxylic acid [2,6-dichloro-3-(propane-1-sulfonylamino)-phenyl]-amide], the IC50 runs as follows: under setting [1], < 100 nM; under setting [2], < 1000 nM; under setting [3], 0.2 nM.

`CCCS(=O)(=O)Nc1ccc(Cl)c(NC(=O)c2csc3c(NC4CCOC4)ncnc23)c1Cl` (stereo not drawn) [Example 71, 4-(Tetrahydro-furan-3-ylamino)-thieno[3,2-d] pyrimidine-7-carboxylic acid [2,6-dichloro-3-(propane-1-sulfonyl-amino)phenyl]-amid]: the IC50 was < 100 nM under setting [1], < 1000 nM under setting [2] and 14.4 nM under setting [3].

Take `CCCS(=O)(=O)Nc1ccc(F)c(NC(=O)c2snc3c(NCC)ncnc23)c1F` [Example 35, 7-Ethylamino-isothiazolo[4,3-d]pyrimidine-3-carboxylic acid [2,6-difluoro-3-(propane-1-sulfonylamino)-phenyl]-amide]: the IC50 reads like this: under setting [2], < 1000 nM; under setting [3], 105 nM.

`CCS(=O)(=O)Nc1ccc(Cl)c(NC(=O)c2csc3c(N)ncnc23)c1F` [Example 3, 4-Amino-thieno[3,2-d] pyrimidine-7-carboxylic acid (6-chloro-3-ethane-sulfonylamino-2-fluoro-phenyl)-amide]: the IC50 under setting [1] is < 100 nM, the IC50 under setting [2] was < 1000 nM and the IC50 under setting [3] worked out at 3.89 nM.

Take `CCCS(=O)(=O)Nc1ccc(F)c(NC(=O)c2csc3c(C)ncnc23)c1F` [Example 40, 4-Methyl-thieno[3,2-d]pyrimidine-7-carboxylic acid [2,6-difluoro-3-(propane-1-sulfonylamino)-phenyl]-amide]: the IC50 runs as follows: under setting [1], < 100 nM; under setting [2], < 1000 nM; under setting [3], 85.5 nM.

Regarding `CCCS(=O)(=O)Nc1ccc(F)c(NC(=O)c2csc3c(NOC)ncnc23)c1Cl` [Example 37, 4-Methoxyamino-thieno[3,2-d]pyrimidine-7-carboxylic acid [2-chloro-6-fluoro-3-(propane-1-sulfonylamino)-phenyl]-amide], the IC50 is, setting by setting: under setting [1], < 100 nM; under setting [2], < 1000 nM; under setting [3], 9.2 nM.

In the case of `CCCC(C)Nc1ncnc2c(C(=O)Nc3c(F)ccc(NS(=O)(=O)CCC)c3F)csc12` (stereo not drawn) [Example 51, 4-(1-Methyl-butylamino)-thieno[3,2-d] pyrimidine-7-carboxylic acid [2,6-difluoro-3-(propane-1-sulfonylamino)-phenyl]-amide], the IC50 reads like this: under setting [2], < 1000 nM; under setting [3], 221 nM.
